Test results published in article PMC3993903 (Molecular pharmaceutics, 2014).

Assays:
Format in all cases: cell-based, human
[1] = system: drug-resistant cervical cancer cells KB-V1; experiment: Cellular uptake by KB-V1 cells; settings: 5 µM, absence or presence of equal molar C8-Tat (5 µM), flow cytometry
KB-3-1 cells = experiment: Cytotoxicity; settings: 2 h treatment with 5 or 15 µM, further 46 h in drug-free medium, SRB, mean ± s.d. n = 3
KB-V1 cells = experiment: Cytotoxicity; settings: 2 h treatment with 5 or 15 µM, further 46 h in drug-free medium, SRB, mean ± s.d. n = 3

## COc1cccc2c1C(=O)c1c(O)c3c(c(O)c1C2=O)C[C@@](O)(C(=O)CO)C[C@@H]3O[C@H]1C[C@H](N)[C@H](O)[C@H](C)O1 [Dox, doxorubicin]
[1]
  intracellular accumulation with or without C8-Tat treatment: almost identical
KB-3-1 cells
  short-term cytotoxicity (cell viability): toxicity toward drug-sensitive cells
KB-V1 cells
  short-term cytotoxicity (cell viability): not on drug-resistant cells
